Measurements reported in patent publication US20040171691A1, “Propofol with cysteine” (Transform Pharmaceuticals, Inc., priority 2002, published 2004).

System: microorganisms
Assay: Antimicrobial effectiveness, overall conclusion over the four USP test organisms
Assay type: cell-based
Details: after adventitious, extrinsic contamination
Description: Tables 2 through 5 compare the antimicrobial effectiveness of the cysteinate HCl formulation with that of Diprivan® and generic propofol formulation, as well as unpreserved Intralipid®.

Question: How did the “time for which significant growth of microorganisms is prevented” value turn out when `Cl.N[C@@H](CS)C(=O)O` [cysteine/cysteinate HCl, Cysteine HCl] was run?
Answer: at least 24 hours
